Assays:
[1] = test system: Mus musculus; experiment: […] activity in ip dosed Mus musculus MFI (mouse) assessed as inhibition of PBQ-induced writhing administered 1.5 hr prior to PBQ-challenge measured after 10 min; format: functional; conditions: read-out: MED
[2] = test system: Mus musculus; experiment: Neurotoxicity in ip dosed Mus musculus MFI (mouse); format: toxicity, organism-based; conditions: in vivo
[3] = test system: Mus musculus; experiment: Neurotoxicity against Mus musculus MFI (mouse) assessed as muscle twitching at 60 mg/kg, ip; format: toxicity, organism-based, Muscle tissue; set-up: dose 60 mg/kg, route intraperitoneal; conditions: in vivo
[4] = test system: Mus musculus; experiment: Neurotoxicity against Mus musculus MFI (mouse) assessed as tremors at 60 mg/kg, ip; format: toxicity, organism-based; set-up: dose 60 mg/kg, route intraperitoneal; conditions: in vivo
[5] = test system: Mus musculus; experiment: Neurotoxicity against Mus musculus MFI (mouse) assessed as irritability at 60 mg/kg, ip; format: toxicity, organism-based; set-up: dose 60 mg/kg, route intraperitoneal; conditions: in vivo
[6] = test system: Mus musculus; experiment: Neurotoxicity against Mus musculus MFI (mouse) assessed as effect on respiration at 60 mg/kg, ip; format: toxicity, organism-based; set-up: dose 60 mg/kg, route intraperitoneal; conditions: in vivo
[7] = test system: Mus musculus; experiment: Neurotoxicity against Mus musculus MFI (mouse) assessed as eye protrusion at 60 mg/kg, ip; format: toxicity, organism-based; set-up: dose 60 mg/kg, route intraperitoneal; conditions: in vivo
[8] = test system: Mus musculus; experiment: Neurotoxicity against Mus musculus MFI (mouse) assessed as hair erection at 60 mg/kg, ip; format: toxicity, organism-based; set-up: dose 60 mg/kg, route intraperitoneal; conditions: in vivo
[9] = test system: Mus musculus; experiment: Neurotoxicity against Mus musculus MFI (mouse) assessed as skeletal muscle incoordination at 60 mg/kg, ip; format: toxicity, organism-based, Muscle tissue; set-up: dose 60 mg/kg, route intraperitoneal; conditions: in vivo
[10] = test system: Mus musculus; experiment: Neurotoxicity against Mus musculus MFI (mouse) assessed as tail erection at 60 mg/kg, ip; format: toxicity, organism-based; set-up: dose 60 mg/kg, route intraperitoneal; conditions: in vivo
[11] = test system: Mus musculus; experiment: Neurotoxicity against Mus musculus MFI (mouse) assessed as epilepsy at 60 mg/kg, ip; format: toxicity, organism-based; set-up: dose 60 mg/kg, route intraperitoneal; conditions: in vivo
[12] = test system: Mus musculus; experiment: Neurotoxicity against Mus musculus MFI (mouse) assessed as muscle twitching at 120 mg/kg, ip; format: toxicity, organism-based, Muscle tissue; set-up: dose 120 mg/kg, route intraperitoneal; conditions: in vivo
[13] = test system: Mus musculus; experiment: Neurotoxicity against Mus musculus MFI (mouse) assessed as excitation at 60 mg/kg, ip; format: toxicity, organism-based; set-up: dose 60 mg/kg, route intraperitoneal; conditions: in vivo
[14] = test system: Mus musculus; experiment: Neurotoxicity against Mus musculus MFI (mouse) assessed as tremors at 120 mg/kg, ip; format: toxicity, organism-based; set-up: dose 120 mg/kg, route intraperitoneal; conditions: in vivo
[15] = test system: Mus musculus; experiment: Neurotoxicity against Mus musculus MFI (mouse) assessed as irritability at 120 mg/kg, ip; format: toxicity, organism-based; set-up: dose 120 mg/kg, route intraperitoneal; conditions: in vivo
[16] = test system: Mus musculus; experiment: Neurotoxicity against Mus musculus MFI (mouse) assessed as eye protrusion at 120 mg/kg, ip; format: toxicity, organism-based; set-up: dose 120 mg/kg, route intraperitoneal; conditions: in vivo
[17] = test system: Mus musculus; experiment: Neurotoxicity against Mus musculus MFI (mouse) assessed as effect on respiration at 120 mg/kg, ip; format: toxicity, organism-based; set-up: dose 120 mg/kg, route intraperitoneal; conditions: in vivo
[18] = test system: Mus musculus; experiment: Neurotoxicity against Mus musculus MFI (mouse) assessed as skeletal muscle incoordination at 120 mg/kg, ip; format: toxicity, organism-based, Muscle tissue; set-up: dose 120 mg/kg, route intraperitoneal; conditions: in vivo
[19] = test system: Mus musculus; experiment: Neurotoxicity against Mus musculus MFI (mouse) assessed as hair erection at 120 mg/kg, ip; format: toxicity, organism-based; set-up: dose 120 mg/kg, route intraperitoneal; conditions: in vivo
[20] = test system: Mus musculus; experiment: Neurotoxicity against Mus musculus MFI (mouse) assessed as tail erection at 120 mg/kg, ip; format: toxicity, organism-based; set-up: dose 120 mg/kg, route intraperitoneal; conditions: in vivo
[21] = test system: Mus musculus; experiment: Neurotoxicity against Mus musculus MFI (mouse) assessed as effect on respiration at 180 mg/kg, ip; format: toxicity, organism-based; set-up: dose 180 mg/kg, route intraperitoneal; conditions: in vivo
[22] = test system: Mus musculus; experiment: Neurotoxicity against Mus musculus MFI (mouse) assessed as eye protrusion at 180 mg/kg, ip; format: toxicity, organism-based; set-up: dose 180 mg/kg, route intraperitoneal; conditions: in vivo
[23] = test system: Mus musculus; experiment: Neurotoxicity against Mus musculus MFI (mouse) assessed as skeletal muscle incoordination at 180 mg/kg, ip; format: toxicity, organism-based, Muscle tissue; set-up: dose 180 mg/kg, route intraperitoneal; conditions: in vivo
[24] = test system: Mus musculus; experiment: Neurotoxicity against Mus musculus MFI (mouse) assessed as hair erection at 180 mg/kg, ip; format: toxicity, organism-based; set-up: dose 180 mg/kg, route intraperitoneal; conditions: in vivo
[25] = test system: Mus musculus; experiment: Neurotoxicity against Mus musculus MFI (mouse) assessed as epilepsy at 120 mg/kg, ip; format: toxicity, organism-based; set-up: dose 120 mg/kg, route intraperitoneal; conditions: in vivo
[26] = test system: Mus musculus; experiment: Neurotoxicity against Mus musculus MFI (mouse) assessed as excitation at 120 mg/kg, ip; format: toxicity, organism-based; set-up: dose 120 mg/kg, route intraperitoneal; conditions: in vivo
[27] = test system: Mus musculus; experiment: Neurotoxicity against Mus musculus MFI (mouse) assessed as muscle twitching at 180 mg/kg, ip; format: toxicity, organism-based, Muscle tissue; set-up: dose 180 mg/kg, route intraperitoneal; conditions: in vivo
[28] = test system: Mus musculus; experiment: Neurotoxicity against Mus musculus MFI (mouse) assessed as tremors at 180 mg/kg, ip; format: toxicity, organism-based; set-up: dose 180 mg/kg, route intraperitoneal; conditions: in vivo
[29] = test system: Mus musculus; experiment: Neurotoxicity against Mus musculus MFI (mouse) assessed as irritability at 180 mg/kg, ip; format: toxicity, organism-based; set-up: dose 180 mg/kg, route intraperitoneal; conditions: in vivo
[30] = test system: Mus musculus; experiment: Neurotoxicity against Mus musculus MFI (mouse) assessed as epilepsy at 180 mg/kg, ip; format: toxicity, organism-based; set-up: dose 180 mg/kg, route intraperitoneal; conditions: in vivo
[31] = test system: Mus musculus; experiment: Neurotoxicity against Mus musculus MFI (mouse) assessed as tail erection at 180 mg/kg, ip; format: toxicity, organism-based; set-up: dose 180 mg/kg, route intraperitoneal; conditions: in vivo
[32] = test system: Mus musculus; experiment: Neurotoxicity against Mus musculus MFI (mouse) assessed as excitation at 180 mg/kg, ip; format: toxicity, organism-based; set-up: dose 180 mg/kg, route intraperitoneal; conditions: in vivo
[33] = test system: Mus musculus; experiment: […] activity in Mus musculus MFI (mouse) assessed as inhibition of PBQ-induced writhing at 60 mg/kg, ip administered 1.5 hr prior to PBQ-challenge measured after 10 min relative to aspirin; format: functional; conditions: route intraperitoneal
[34] = test system: Mus musculus; experiment: […] activity in Mus musculus MFI (mouse) assessed as inhibition of PBQ-induced writhing at 120 mg/kg, ip administered 1.5 hr prior to PBQ-challenge measured after 10 min relative to aspirin; format: functional; conditions: route intraperitoneal
[35] = test system: Mus musculus; experiment: […] activity in Mus musculus MFI (mouse) assessed as inhibition of PBQ-induced writhing at 180 mg/kg, ip administered 1.5 hr prior to PBQ-challenge measured after 10 min relative to aspirin; format: functional; conditions: route intraperitoneal
[36] = test system: Mus musculus; experiment: […] activity in Mus musculus MFI (mouse) assessed as inhibition of PBQ-induced writhing at 100 mg/kg, ip administered 1.5 hr prior to PBQ-challenge measured after 10 min relative to control; format: functional; conditions: route intraperitoneal

CC(COc1cccc(Cl)c1Cl)N1CCN(C)CC1.O=C(O)C(=O)O (racemic)
100%: inhibition in vivo at 180 mg/kg [35]
Toxic: Activity [3] | Activity [4] | Activity [5] | Activity [6] | Activity [7] | Activity [8] | Activity [9] | Activity [10] | Activity [11] | Activity [12] | Activity [13] | Activity [14] | Activity [15] | Activity [16] | Activity [17] | Activity [18] | Activity [19] | Activity [20] | Activity [21] | Activity [22] | Activity [23] | Activity [24] | Activity [25] | Activity [26] | Activity [27] | Activity [28] | Activity [29] | Activity [30] | Activity [31] | Activity [32]
37.5%: inhibition in vivo at 60 mg/kg [33]
120 mg/kg: MTC [2]
60 mg/kg: minimal effective dose [1]
75%: inhibition in vivo at 120 mg/kg [34]

CC(=O)Oc1ccccc1C(=O)O [ASPIRIN]
100%: inhibition in vivo at 100 mg/kg [36]
